Measured values taken from article PMC7576480, “Hydroxy-Propil-β-Cyclodextrin Inclusion Complexes of two Biphenylnicotinamide Derivatives: Formulation and Anti-Proliferative Activity Evaluation in Pancreatic Cancer Cell Models” (International Journal of Molecular Sciences, 2020).
Like-named read-outs stand apart in the source and are kept apart here.

What was measured:
[1] = Solubility in ultra-pure water and in HP-β-CD solutions at 37 °C; type: physicochemical; conditions: for solubility: 37 °C, thermodynamic from solid, ultra-pure water, 37 ± 0.5 °C; for Increase in aqueous solubility: HP-β-CD 45% w/v versus water alone
Procedure: Quantitative analysis of PTA34 and PTA73 was carried out by spectrophotometry using a dual-beam UV-VIS Lambda 20 Bio spectrophotometer (Perkin Elmer, Milan, Italy) and quartz cuvettes, with a capacity of 1 mL, using methanol as solvent. In the case of PTA34 the reading was carried out at a wavelength of 320 nm, and a calibration straight line (r^2 = 0.9979), in the concentration range between 0.15 mg/mL (4.45 × 10^−4 mM) and 0.015 mg/mL (4.45 × 10^−5 mM), was obtained. For PTA73 the reading was carried out at a wavelength of 340 nm, and a calibration straight line (r^2 = 0.9999) in the concentration range between 0.16 mg/mL (5.01 × 10^−4 mM) and 0.016 mg/mL (5.01 × 10^−5 mM), was obtained.
(§1) The phase solubility study was conducted according with Higuchi and Connors. In detail, an excess of PTA34 or PTA73 was added to 1 mL of solutions containing HP-β-CD in the appropriate concentration (0–45% w/v) in 4 mL vials, with screw caps to avoid evaporation. The obtained mixtures were vigorously vortexed for about 5 min, and the suspensions thus obtained were placed under constant stirring in a thermostat bath at 37 ± 0.5 °C for about 48 h, until the saturation of the system was achieved. Then, each suspension was centrifuged at 13,200 rpm (MIKRO 22 R, Hettich Zentrifugen, Germany) in order to remove the uncomplexed drug and the supernatant was analyzed by spectrophotometry for the quantification of the drug, after appropriate dilution. All determinations were conducted at least in triplicate. The obtained data were used to determine the apparent stability 1:1 constant (K1:1) of the HP-β-CD inclusion complexes with the biphenylnicotinamide derivatives, using the Higuchi and Connors equation: K1:1=slope/S0(1−slope) where slope is the slope of the obtained phase solubility diagrams straight line, and S0 represents PTA34 or PTA73 intrinsic solubility determined in the same way.

[2] = Phase-solubility study (Higuchi–Connors), apparent 1:1 stability constant with HP-β-CD; type: physicochemical; conditions: complex with HP-β-CD, from the phase solubility diagram, 37 ± 0.5 °C
Procedure: as §1

[3] = tested on: AsPC-1 cells; assay: MTT cell proliferation assay; type: cell-based; conditions: Homo sapiens, ASPC1, AsPC-1, 72 h, concentration in terms of PTA, ± SD
Procedure: (§2) Human pancreatic ductal adenocarcinoma (PDAC) PANC-1 cells, human pancreas adenocarcinoma ascites metastasis cells AsPC-1, and undifferentiated human pancreatic carcinoma MIAPaCa-2 cells, were purchased from ATCC®. PANC-1 and AsPC-1 cells were cultured in Dulbecco’s modified Eagle’s medium (DMEM), supplemented with fetal bovine serum (FBS), to a final concentration of 10%, L-glutamine 1% (v/v), and penicillin/streptomycin 1% (v/v). MIA PaCa-2 cells were grown in Roswell Park Memorial Institute (RPMI) medium, supplemented as above, and in addition with horse serum, to a final concentration of 2.5%. Cells were maintained in a humid atmosphere of 95% air and 5% CO2 at 37 °C. All materials for cell culturing were purchased from EuroClone (Pero, Milan, Italy).
(§3) The 3-(4,5-dimethylthiazol-2-yl)-2,5- diphenyltetrazoliumbromide (MTT) assay was performed as previously described to investigate the effect of hydroxy-propil-β-cyclodextrin-complexed PTA34 and PTA73 (PTA34/HP-β-CD and PTA73/HP-β-CD, respectively) on cell viability of PANC-1, AsPC-1, and MIA PaCa-2 cell lines. The same uncomplexed compounds and HP-β-CD alone were also tested as reference compounds. Untreated cells were used as a […]. In particular, cells were seeded in 96 well plates at a density of 5000 cells/well, incubated for 24 h in culturing medium, and subsequently treated for 72 h, with compounds at 0.01–10 µM concentrations range, in terms of PTA34 or PTA73, included. HP-β-CD–cyclodextrin alone was tested in the concentrations range corresponding to that present in the complex, namely 2.9–2900 µg/mL. After the incubation period 10 µL of a 0.5% (w/v) MTT/PBS solution were added to each well, and the incubation was prolonged further for 2 h. After this period, medium was removed and replaced with 100 µL of DMSO. The absorbance in each well was measured by a microplate reader (MULTISKAN Sky, ThermoScientific). The results are shown as dose/effect plots of the mean of three different experiments. The IC50 was defined as the drug concentration yielding a fraction of affected (no surviving) cells = 0.5, normalized with untreated cells, and was calculated utilizing CalcuSyn v.1.1.1 software (Biosoft, UK).

[4] = tested on: MIA PaCa-2 cells; assay: MTT cell proliferation assay; type: cell-based; conditions: Homo sapiens, MIA PaCa-2, 72 h, concentration in terms of PTA, ± SD
Procedure: as §2, §3

[5] = tested on: Panc-1 cells; assay: MTT cell proliferation assay; type: cell-based; conditions: Homo sapiens, Panc-1, 72 h, concentration in terms of PTA, ± SD
Procedure: as §2, §3

[6] = tested on: AsPC-1 cells; assay: Cell cycle analysis by flow cytometry (PI staining); type: cell-based, human; conditions: AsPC-1, 1 µM in terms of PTA, 24 h
Procedure: (§4) For the cell cycle analysis, human pancreatic cancer cells were seeded in 60 mm dishes at a density of 500,000/well and incubated for 24 h at 37 °C, with PTA34, PTA73 both complexed and not at concentration 1 µM in terms of PTA’s, and with cyclodextrin alone at concentration equal to 290 µg/mL. Cells were then harvested, washed twice in ice-cold PBS pH 7.4, fixed in 4 mL of 70% ethanol, and stored at -20 °C until analysis. The cell cycle modulation induced by treatments was studied as previously described by propidium iodide (PI) staining; the pellet was resuspended in PBS without Ca^2+ and Mg^2+, containing 1 mg/mL RNase, 0.01% NP40, and 50 ĉg/mL PI (Sigma), and then flow cytometry analysis was performed on Attune NxT acoustic focusing cytometer (Life Technologies). Data were interpreted using the CytExpert software v.1.2, provided by the manufacturer.

[7] = tested on: MIA PaCa-2 cells; assay: as above; type: cell-based, human; conditions: MIA PaCa-2, 1 µM in terms of PTA, 24 h
Procedure: as §4

[8] = tested on: Panc-1 cells; assay: as above; type: cell-based, human; conditions: PANC-1, 1 µM in terms of PTA, 24 h
Procedure: as §4

[9] = tested on: MIA PaCa-2 cells; design: method as in PMID 30583077; conditions: low doses; cited from earlier work
[10] = HP-β-CD 0% w/v, read-out: Water solubility (intrinsic solubility, S0)
[11] = read-out: Intrinsic solubility (S0)

solubility [1, 10] | solubility [1, 11] | Increase in aqueous solubility [1] | 1:1 apparent formation (equilibrium) constant, Ks [2] | IC50 [3] | IC50 [4] | IC50 [5] | Structure (SMILES) | Cells arrested in G2/M phase [6] | Cells arrested in G2/M phase [7] | Cells arrested in G2/M phase [8] | Antitumor activity [9]
1.95 ± 0.35 µg/mL | 5.78 µM | about 150 times | 503.9 M⁻¹ | 1900 ± 300 nM | 310 ± 40 nM | 2500 ± 500 nM | O=C(Nc1ccc(-c2ccc(F)cc2)cc1[N+](=O)[O-])c1cccnc1 [PTA34] | 93% | 36.7% | 57.9% | remarkable antitumor activity
7.16 ± 0.34 µg/mL | 22.4 µM | ~106 times | 369.2 M⁻¹ | 2300 ± 600 nM | 6 ± 2 nM | 1500 ± 200 nM | O=C(Nc1ccc(-c2ccccc2)cc1[N+](=O)[O-])c1cccnc1 [PTA73] | 94.1% | 45.2% | 64.9% | remarkable antitumor activity
